Assay results taken from publication PMC10648349, “Aromatic Diboronic Acids as Effective KPC/AmpC Inhibitors” (Molecules, 2023).
Values after ≈ are worked out from the molar mass of the structure shown.

Experiments:
[1] = MTT-based viability assay; assay type: cell-based; settings: human, MRC-5 human fibroblasts, 72 h, read-out: Viability of MRC-5 cells (% of viable cells ± SD)
Outline: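 Percent viable cells relative to control, measured in triplicate by MTT read-out at 570 nm. Cells: MRC-5 human fibroblasts cultured at 37 °C, 5% CO2 in MEME plus 10% FBS.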

[2] = test system: K. pneumoniae ATCC BAA 1705 KPC(+); experiment: screening test of direct antimicrobial activity (STDA), disc-diffusion; assay type: cell-based; settings: Klebsiella pneumoniae, BAA1705; 0.3 mg per disc; - no zone; read-out: Diameter of inhibition zone around disc with tested agent
Method: (§1) Prior to combination disc tests, screening tests of direct antimicrobial activity (STDA) of the tested agent against β-lactamase-producing strains were performed by the disc-diffusion method. Discs with 0.3 mg, 0.1 mg, and 0.03 mg of each agent were examined. The highest amount of an agent that caused no effect on bacterial growth was used in further experiments.

E. coli 77 CMY-2(+) = experiment: as above; assay type: cell-based; settings: Escherichia coli; 0.3 mg per disc; - no zone; read-out: Diameter of inhibition zone around disc with tested agent
Method: as §1

[3] = test system: K. pneumoniae ATCC 700603 ESBL(+); experiment: as above; assay type: cell-based; settings: Klebsiella pneumoniae, ATCC700603; 0.3 mg per disc; - no zone; read-out: Diameter of inhibition zone around disc with tested agent
Method: as §1

[4] = test system: P. aeruginosa MUW 700 AmpC(+); experiment: as above; assay type: cell-based; settings: Pseudomonas aeruginosa; 0.3 mg per disc; - no zone; read-out: Diameter of inhibition zone around disc with tested agent
Method: as §1

[5] = test system: K. pneumoniae ATCC 700603 ESBL-positive; experiment: combination disc test CDT-ESBL; assay type: cell-based; settings: Klebsiella pneumoniae, ATCC700603, read-out: Diameter of inhibition zone, CAZ-30 disc with agent; for zone of inhibition at 100 µg/disc: agent 0.1 mg per disc
C. krusei ATCC 6258 = experiment: antifungal activity (disc-diffusion, MIC, MFC); assay type: cell-based, Candida krusei; settings: Pichia kudriavzevii, ATCC6258; for MIC: fluconazole by Etest; for zone of inhibition at 0.4 mg/disc: 0.4 mg per disc, 9 mm disc (fluconazole 0.025 mg, 6 mm disc), - no zone, read-out: Diameter of inhibition zone
Outline: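 Testing of direct antimicrobial action relied on CLSI and EUCAST protocols, namely disc diffusion, MIC and cidal-concentration determinations. Each disc carried 0.4 mg of test agent.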

[6] = test system: E. coli 77 CMY-2-positive; experiment: checkerboard microdilution, antibiotic plus tested agent; assay type: cell-based, Escherichia coli
Outline: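 Read-out is the antibiotic MIC with agent present, plus FICI = combined/alone MIC ratios summed for both partners. Meropenem pairs served for carbapenemase strains and ceftazidime pairs for the AmpC strain. Agent or PBA was tested at 4–16 mg/L.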

[7] = test system: K. pneumoniae 81 KPC-3-positive; experiment: as above; assay type: cell-based, Klebsiella pneumoniae
Outline: (§2)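 β-lactam 1–64 mg/L × agent/PBA 4–16 mg/L checkerboard; meropenem vs carbapenemase producers, ceftazidime vs AmpC producer; imipenem, ertapenem added for selected agents. Readout: combination MICs, FICI (average and lowest); off-scale MICs taken as next doubling.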

[8] = test system: K. pneumoniae ATCC BAA-1705 KPC-2-positive; experiment: as above; assay type: cell-based, Klebsiella pneumoniae
Outline: as §2

[9] = test system: K. pneumoniae 83 KPC-3-positive, CTX-M-3-positive; experiment: as above; assay type: cell-based, Klebsiella pneumoniae
Outline: as §2

[10] = test system: E. coli 76 KPC-2-positive; experiment: as above; assay type: cell-based, Escherichia coli
Outline: as §2

OB(O)c1ccc(B(O)O)c(F)c1F [1c]
viability at 72 h, 12.5 mg/L [1]: 112 ± 3.8%
viability at 72 h, 25 mg/L [1]: 103 ± 3%
viability at 72 h, 50 mg/L [1]: 96.7 ± 3.3%
zone of inhibition at 300 µg/disc [2]: 12 mm
zone of inhibition at 300 µg/disc (E. coli 77 CMY-2(+)): 17 mm
zone of inhibition at 300 µg/disc [3]: 14 mm
zone of inhibition at 300 µg/disc [4]: 13 mm
zone of inhibition at 100 µg/disc [5]: 14 mm
MIC (C. krusei ATCC 6258): 400 µg/mL (≈ 1980 µM)
Average FICI with ceftazidime [6]: 0.19
The lowest FICI with ceftazidime [6]: 0.14

OB(O)c1cc(B(O)O)c(F)cc1F [2c]
viability at 72 h, 12.5 mg/L [1]: 89.1 ± 0.5%
viability at 72 h, 25 mg/L [1]: 83.6 ± 2.7%
viability at 72 h, 50 mg/L [1]: 63.8 ± 2.5%
zone of inhibition at 300 µg/disc [2]: 14 mm
zone of inhibition at 300 µg/disc (E. coli 77 CMY-2(+)): 15 mm
zone of inhibition at 300 µg/disc [3]: 13 mm
zone of inhibition at 300 µg/disc [4]: 11 mm
zone of inhibition at 100 µg/disc [5]: 13 mm
MIC (C. krusei ATCC 6258): > 400 µg/mL
Average FICI with ceftazidime [6]: 0.21
The lowest FICI with ceftazidime [6]: 0.17

OB(O)c1ccc(B(O)O)c(F)c1 [1b]
viability at 72 h, 12.5 mg/L [1]: 140 ± 6.7%
viability at 72 h, 25 mg/L [1]: 140 ± 8.3%
viability at 72 h, 50 mg/L [1]: 117 ± 1.3%
zone of inhibition at 300 µg/disc [2]: 13 mm
zone of inhibition at 300 µg/disc (E. coli 77 CMY-2(+)): 12 mm
zone of inhibition at 300 µg/disc [3]: 12 mm
zone of inhibition at 300 µg/disc [4]: 12 mm
zone of inhibition at 100 µg/disc [5]: 15 mm
zone of inhibition at 0.4 mg/disc (C. krusei ATCC 6258): 22 mm
MIC (C. krusei ATCC 6258): 100 µg/mL (≈ 544 µM)
Average FICI with ERT [7]: 0.43
Average FICI with IMI [7]: 0.35
Average FICI with MEM [7]: 0.28
The lowest FICI with ERT [7]: 0.27
The lowest FICI with IMI [7]: 0.26
The lowest FICI with MEM [7]: 0.08
Average FICI with ERT [8]: 0.51
Average FICI with IMI [8]: 0.43
Average FICI with MEM [8]: 0.43
The lowest FICI with ERT [8]: 0.51
The lowest FICI with IMI [8]: 0.27
The lowest FICI with MEM [8]: 0.27
Average FICI with ERT [9]: 0.43
Average FICI with IMI [9]: 0.43
Average FICI with MEM [9]: 0.60
The lowest FICI with ERT [9]: 0.27
The lowest FICI with IMI [9]: 0.27
The lowest FICI with MEM [9]: 0.27
Average FICI with ERT [10]: 0.32
Average FICI with IMI [10]: 0.32
Average FICI with MEM [10]: 0.36
The lowest FICI with ERT [10]: 0.17
The lowest FICI with IMI [10]: 0.17
The lowest FICI with MEM [10]: 0.27
Average FICI with ceftazidime [6]: 0.17
The lowest FICI with ceftazidime [6]: 0.10

OB(O)c1cc(F)c(F)c(B(O)O)c1 [2d]
viability at 72 h, 12.5 mg/L [1]: 107 ± 7.6%
viability at 72 h, 25 mg/L [1]: 88 ± 4.3%
viability at 72 h, 50 mg/L [1]: 75.2 ± 9.4%
zone of inhibition at 300 µg/disc [2]: 11 mm
zone of inhibition at 300 µg/disc (E. coli 77 CMY-2(+)): 15 mm
zone of inhibition at 300 µg/disc [3]: 11 mm
zone of inhibition at 300 µg/disc [4]: 12 mm
zone of inhibition at 100 µg/disc [5]: 13 mm
MIC (C. krusei ATCC 6258): 400 µg/mL (≈ 1980 µM)
Average FICI with ceftazidime [6]: 0.19
The lowest FICI with ceftazidime [6]: 0.14

OB(O)c1cc(F)c(B(O)O)c(F)c1F [1f]
viability at 72 h, 12.5 mg/L [1]: 97.4 ± 2.2%
viability at 72 h, 25 mg/L [1]: 89.9 ± 1.9%
viability at 72 h, 50 mg/L [1]: 78.1 ± 0.9%
zone of inhibition at 300 µg/disc [2]: 16 mm
zone of inhibition at 300 µg/disc (E. coli 77 CMY-2(+)): 15 mm
zone of inhibition at 300 µg/disc [3]: 18 mm
zone of inhibition at 300 µg/disc [4]: 12 mm
zone of inhibition at 100 µg/disc [5]: 15 mm
zone of inhibition at 0.4 mg/disc (C. krusei ATCC 6258): 19 mm
MIC (C. krusei ATCC 6258): 100 µg/mL (≈ 455 µM)
Average FICI with ceftazidime [6]: 0.24
The lowest FICI with ceftazidime [6]: 0.21

OB(O)c1cc(F)c(B(O)O)cc1F [1e]
viability at 72 h, 12.5 mg/L [1]: 107 ± 3.3%
viability at 72 h, 25 mg/L [1]: 105 ± 10%
viability at 72 h, 50 mg/L [1]: 117 ± 4.6%
zone of inhibition at 300 µg/disc [2]: 15 mm
zone of inhibition at 300 µg/disc (E. coli 77 CMY-2(+)): 18 mm
zone of inhibition at 300 µg/disc [3]: 14 mm
zone of inhibition at 300 µg/disc [4]: 14 mm
zone of inhibition at 100 µg/disc [5]: 15 mm
zone of inhibition at 0.4 mg/disc (C. krusei ATCC 6258): 16 mm
MIC (C. krusei ATCC 6258): > 400 µg/mL
Average FICI with ERT [7]: 0.55
Average FICI with IMI [7]: 0.38
Average FICI with MEM [7]: 0.46
The lowest FICI with ERT [7]: 0.52
The lowest FICI with IMI [7]: 0.29
The lowest FICI with MEM [7]: 0.33
Average FICI with ERT [8]: 0.88
Average FICI with IMI [8]: 0.71
Average FICI with MEM [8]: 0.46
The lowest FICI with ERT [8]: 0.58
The lowest FICI with IMI [8]: 0.54
The lowest FICI with MEM [8]: 0.33
Average FICI with ERT [9]: 0.63
Average FICI with IMI [9]: 0.55
Average FICI with MEM [9]: 0.63
The lowest FICI with ERT [9]: 0.33
The lowest FICI with IMI [9]: 0.52
The lowest FICI with MEM [9]: 0.33
Average FICI with ERT [10]: 0.39
Average FICI with IMI [10]: 0.51
Average FICI with MEM [10]: 0.51
The lowest FICI with ERT [10]: 0.29
The lowest FICI with IMI [10]: 0.41
The lowest FICI with MEM [10]: 0.41
Average FICI with ceftazidime [6]: 0.17
The lowest FICI with ceftazidime [6]: 0.14

OB(O)c1cc(F)cc(B(O)O)c1 [2b]
viability at 72 h, 12.5 mg/L [1]: 108 ± 1.1%
viability at 72 h, 25 mg/L [1]: 87.9 ± 1.7%
viability at 72 h, 50 mg/L [1]: 73.8 ± 1.9%
zone of inhibition at 300 µg/disc (E. coli 77 CMY-2(+)): 13 mm
zone of inhibition at 300 µg/disc [4]: 11 mm
zone of inhibition at 300 µg/disc ([5]; agent 0.3 mg per disc): 16 mm
MIC (C. krusei ATCC 6258): > 400 µg/mL
Average FICI with ceftazidime [6]: 0.17
The lowest FICI with ceftazidime [6]: 0.10
